Test results from patent US10426772B2, “Use of ergot alkaloids as an anthelmintic agent” (priority 2016, dated 2019).
Where two headings read alike, the source gives them in different places.

What was measured:
Sm.5HTR [1] = biological target: Sm.5HTR (Schistosoma mansoni, UniProt G4V5G4); type: cell-based
Protocol: (§1) HEK293 cells (ATCC CRL-1573.3) were cultured in DMEM supplemented with 10% fetal bovine serum (FBS), penicillin (100 units/mL), streptomycin (100 μg/mL), and L-glutamine (290 μg/mL). Cells were transiently transfected (ViaFect, Promega) as per the manufacturer's protocol at a density of 2×10^6 cells per T-25 cell-culture flask. Cells were transfected with plasmids encoding GloSensor (Promega) and either Sm.5HTR, (Smp_126730, GenBank accession number KF444051.1) or Sm.5HTRL (KX150867), both GPCRs being codon optimized for mammalian expression, or Hs.5HT7a (GenBank accession number NM_000872.4, R&D Systems) subcloned into pCS2(−). Cell culture reagents were from Invitrogen. Epitope tagged constructs were used to verify expression, and untagged constructs used for all luminescence assays.
(§2) For assays performed on adherent cells, HEK-293 cells were transferred one day post transfection to 96 well, solid white plates (Corning, cat #3917) coated with 0.01% poly-L-lysine (Sigma Aldrich) at a density of 5×10^4 cells/well in DMEM supplemented with 1% dialyzed FBS (Gibco). After overnight culture (37° C./5% CO2), media was decanted and replaced with 100 μL/well HBSS supplemented with 0.1% BSA, 20 mM HEPES (pH 7.4) and GloSensor™ reagent. Plates were allowed to equilibrate at room temperature for two hours prior to performing luminescence assays (GloMax-Multi Detection System plate reader, Promega). Conditions for individual assays were described as per figure legends. The standard assay to detect changes in cAMP utilized the F22 sensor in media supplemented with IBMX (200 μM). Ligands were added at a concentration of 20× per well for experiments (i.e., 5 μl of drug solution added to 100 μL of cells). […] For the resazurin reduction assay for cellular viability, cells were incubated with resazurin (final concentration, 10 μM) and tested ligands with fluorescence measurements (560 nm excitation/590 nm emission) made at 1.5 hours intervals.
(§3) The protocol for screening is shown schematically in FIG. 5A. HEK293 cells transiently transfected with either the human 5HT7 receptor (Hs.5HT7R) or the schistosome receptor (Sm.5HTR) were exposed to test ligands in a 96-well plate format. […] Luminescence was then read at a fixed time point (t=60 minutes, FIG. 5A). Hits were assigned as compounds that evoked a ≥50% decrease in luminescence output at the fixed time sampling point (FIG. 5B).

Sm.5HTR [2] = biological target: Sm.5HTR (Schistosoma mansoni, UniProt A0A173FEI8); test: cell-based; conditions: for antagonist activity at Sm.5HTR, in words: FIG. 18B
Chain of Sm.5HTR (Schistosoma mansoni, UniProt A0A173FEI8) (A0A173FEI8 entry or part of it): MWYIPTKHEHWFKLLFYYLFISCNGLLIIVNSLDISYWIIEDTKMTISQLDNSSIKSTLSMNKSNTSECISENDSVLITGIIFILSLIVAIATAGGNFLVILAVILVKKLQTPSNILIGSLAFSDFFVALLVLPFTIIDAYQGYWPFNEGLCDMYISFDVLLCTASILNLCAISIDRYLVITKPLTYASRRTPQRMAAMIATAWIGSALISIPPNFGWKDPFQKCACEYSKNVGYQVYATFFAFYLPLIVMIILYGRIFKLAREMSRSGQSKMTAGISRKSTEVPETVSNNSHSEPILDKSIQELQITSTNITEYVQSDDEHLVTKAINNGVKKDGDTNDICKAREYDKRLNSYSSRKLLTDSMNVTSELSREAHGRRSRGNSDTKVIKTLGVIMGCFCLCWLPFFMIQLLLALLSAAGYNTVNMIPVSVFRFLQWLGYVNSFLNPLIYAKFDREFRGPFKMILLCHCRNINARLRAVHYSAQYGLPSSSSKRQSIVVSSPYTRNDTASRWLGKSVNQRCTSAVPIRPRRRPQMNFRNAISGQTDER
Protocol: HEK293 cells (ATCC CRL-1573.3) were cultured in growth media consisting of DMEM supplemented with GlutaMAX (Gibco cat #10566016)+10% heat inactivated fetal bovine serum and penicillin-streptomycin (100 units/mL, ThermoFisher). Stable cell lines for the pGloSensor-22F cAMP Plasmid (Promega) and schistosome 5HTRs in pcDNA3.1(−) were selected with hygromycin (200 μg/mL) and G418 (400 μg/mL). The correct identity of each stably expressed sequence was verified by isolating total RNA from each stable line (TRIzol Reagent, Ambion) and amplifying the sequence of interest with gene specific primers flanking the 5′ and 3′ regions of the cds (SuperScript® III One-Step RT-PCR System, Invitrogen). PCR products were ligated into a TA cloning vector (pGEM-T Easy, Promega) and sequenced.
HEK293 lines stably expressing both the 22F cAMP sensor and Sm.5HTR were cultured in growth media supplemented with 10% dialyzed FRS. For cAMP assays in 96 well format, cells cultured in T-75 flasks were trypsinized (TrypLE Express, Gibco) and plated in solid white 96 well plates (Costar cat #3917) the day prior to assay at a density of 2.5×10^4 cells/well. The following day media was removed and replaced with assay buffer consisting of HBSS buffered with HEPES (20 mM, pH 7.4)+BSA (0.1% w/v) and D-luciferin sodium salt (1 mg/mL, Gold Biotechnology). Plates were equilibrated at room temperature for 1 hour, at which point 3-Isobutyl-1-methylxanthine (IBMX 200 μM, Sigma Aldrich) was added. Plates were equilibrated a further 30 minutes prior to test compound addition. […] Readings performed in 384 well format were modified so that cells were assayed in suspension. Cells were grown to 70% confluence in T-75 flasks, trypsinized and pelleted (300 RCF×5 minutes). Media was removed and cells were resuspended in 25 mL assay buffer supplemented with IBMX (200 μM). A 96 channel semi-automated pipet (Eppendorf epMotion 96) delivered 55 μL of cell suspension per well (5000 cells/well) into solid white 384 plates (Corning 3574).

adult schistosomes = test: Egg laying assay, adult schistosome pairs in vitro; type: cell-based, Schistosoma mansoni; conditions: serotonin 100 μM, forskolin 100 μM, LSD 10 μM, nuciferine 10 μM, ergotamine 5 μM (FIG. 19F); eggs per worm pair/day over five days
Excerpt: Female Swiss Webster mice infected with S. mansoni cerceria (NMRI strain) were sacrificed 49 days post infection by CO2 euthanasia. Adult schistosomes were recovered by perfusion with a solution of 0.85% sodium chloride+0.75% sodium citrate and dissection of the mesenteric vasculature. Harvested schistosomes were washed in RPMI 1640 Medium with GlutaMAX+5% heat inactivated FBS (Gibco) and Penicillin-Streptomycin (final concentration 100 units/mL, ThermoFisher cat #15140122).
For egg laying assays, adult schistosomes were transferred to 24 well plates the day after harvesting from mice (5 worm pairs in 2 mL media per well). Eggs were counted under a stereomicroscope daily, after which worms were transferred to a new well with fresh drug containing media. Egg counts were recorded for five days, and data processed as the mean number of eggs laid per worm pair/day. Measurements of egg dimensions were quantified using the “analyze>measure” function in ImageJ to record the length and width of individual eggs.

Hs.5HT7R = biological target: T1, Hs.5HT7R (Homo sapiens, UniProt P34969); test: GloSensor cAMP assay, HEK293 cells transiently transfected with Hs.5HT7R; type: cell-based; conditions: inhibition of cAMP generation
T1 construct: host or cells: HEK293 (ATCC CRL-1573.3), transient, pCS2(−), co-transfected with GloSensor
T1 sequence (P34969 1-445 isoform P34969-2): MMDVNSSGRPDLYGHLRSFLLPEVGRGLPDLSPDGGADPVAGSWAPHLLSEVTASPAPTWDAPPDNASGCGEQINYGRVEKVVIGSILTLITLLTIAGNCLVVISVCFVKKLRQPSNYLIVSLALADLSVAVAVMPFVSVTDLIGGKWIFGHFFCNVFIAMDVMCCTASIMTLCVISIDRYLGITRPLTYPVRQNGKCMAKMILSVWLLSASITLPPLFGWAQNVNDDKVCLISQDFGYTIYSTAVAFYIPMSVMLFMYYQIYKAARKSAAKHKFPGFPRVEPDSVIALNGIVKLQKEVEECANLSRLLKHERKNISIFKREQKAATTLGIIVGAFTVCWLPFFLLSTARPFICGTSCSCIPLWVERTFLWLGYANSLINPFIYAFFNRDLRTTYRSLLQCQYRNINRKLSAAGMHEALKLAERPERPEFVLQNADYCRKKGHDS
Protocol: as §1, §2, §3

[3] = tested on: S. mansoni schistosomules; test: Schistosomule contractility assay; type: cell-based; conditions: Schistosoma mansoni, read-out: IC50, inhibition of 5-HT evoked contractions
Protocol: FIGS. 14A-14F. […] Effects of selected ligands on schistosomules. […] A contractile cycle is defined when a deviation of ≥20% of the average body length (dashed lines) occurs.
Biomphalaria glabrata (M-line) snails exposed to Schistosoma mansoni miracidia (Strain PR-1) were obtained from BEI Resources (Cat. number NR-21961) and cercaria were shed following exposure to light (1.5 hours). Cercaria were manually transformed into schistosomula by vortexing (3×45 seconds, each separated by 3 minutes on ice) and tails were removed by gradient centrifugation (24 mL Percoll, 4 mL 10×EMEM, 1.5 ml penicillin-streptomycin, 1 mL of 1M HEPES in 0.85% NaCl, 9.5 ml distilled water) at 500 g/15 minutes at 4° C. Supernatant containing tails was discarded, and schistosomules were resuspended in Basch media and incubated (37° C., 5% CO2) overnight before conducting mobility assays. For contractility experiments, somules were incubated in 5-HT free Basch media to resolve a basal contractility rate. […] Schistosomules were incubated in 24 well plates (about 200 schistosomules/0.5 mL media per well) for 30 minutes (37° C./5% CO2) prior to acquiring videos of schistosome movement (1 minute recordings/well) using a Nikon Coolpix 5700 camera affixed to a Nikon Eclipse TS100 microscope (10× objective). The WrmTrck plugin for ImageJ was used to quantify worm mobility (El-Shehabi et al., 2012). Briefly, the major axis of each schistosomule body length was extracted from the raw output of WrmTrck and an average length was determined for the duration of the recording. Contractions were quantified by determining the number of episodes during which the worm body length deviated from the average by over 20%. S. mansoni protocols were approved by the Iowa State University Institutional Biosafety Committee.

Sm.5HTRL = Sm.5HTRL (Schistosoma mansoni, UniProt A0A173FEI8); test: GloSensor cAMP assay, HEK293 cells transiently transfected with Sm.5HTRL; type: cell-based; conditions: antagonists 10 μM; 5-HT EC80 dose 0.8 μM (FIG. 8)
Chain of Sm.5HTRL (A0A173FEI8 entry or part of it): as the sequence (A0A173FEI8 entry or part of it) above
Protocol: as §1, §2

Chain of Sm.5HTR (Schistosoma mansoni, UniProt G4V5G4) (G4V5G4 entry or part of it): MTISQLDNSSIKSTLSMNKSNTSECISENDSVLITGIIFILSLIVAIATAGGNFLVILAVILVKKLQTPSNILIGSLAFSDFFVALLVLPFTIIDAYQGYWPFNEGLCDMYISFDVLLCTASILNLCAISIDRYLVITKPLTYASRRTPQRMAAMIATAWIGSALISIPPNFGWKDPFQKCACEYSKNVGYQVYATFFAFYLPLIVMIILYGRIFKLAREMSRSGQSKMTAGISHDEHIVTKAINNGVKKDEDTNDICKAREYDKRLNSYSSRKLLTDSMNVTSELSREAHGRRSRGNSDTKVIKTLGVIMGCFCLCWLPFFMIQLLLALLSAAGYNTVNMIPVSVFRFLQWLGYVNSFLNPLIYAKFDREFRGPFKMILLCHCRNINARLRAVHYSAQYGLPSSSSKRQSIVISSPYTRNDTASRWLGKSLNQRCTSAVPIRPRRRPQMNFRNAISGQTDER

CNCCC(Oc1ccc(C(F)(F)F)cc1)c1ccccc1 (centres unmarked) [fluoxetine]
selectivity Sm.5HTR versus Hs.5HT7R (IC50 (Hs.5HT7R)/IC50 (Sm.5HTR)), in words (Sm.5HTR [1]): preferential selectivity toward Sm.5HTR

CCN(CC)C(=O)N[C@H]1C[C@@H]2c3cccc4[nH]cc(c34)C[C@H]2N(C)C1 [terguride]
IC50 (Sm.5HTR [2]; 5-HT 500 nM, read-out: Sm.5HTR IC50 (antagonist)): 400 ± 50 nM
agonist activity at Sm.5HTR, in words (Sm.5HTR [2]; FIG. 18C): completely eliminates agonist activity

CC(C)C[C@H]1C(=O)N2CCC[C@H]2[C@]2(O)O[C@](NC(=O)[C@@H]3C=C4c5cccc6[nH]cc(c56)C[C@H]4N(C)C3)(C(C)C)C(=O)N12 [α-ergocryptine]
antagonist activity at Sm.5HTR, in words (Sm.5HTR [2]): loss of antagonist activity
Sm.5HTR Emax (Sm.5HTR [2]; agonist read, 45 minutes): negligible activity

COc1cc2c3c(c1OC)-c1ccccc1C[C@H]3N(C)CC2 [nuciferine]
decrease of egg laying (adult schistosomes): no effect

CN1C[C@H](C(=O)N[C@]2(C)O[C@@]3(O)[C@@H]4CCCN4C(=O)[C@H](Cc4ccccc4)N3C2=O)C[C@@H]2c3cccc4[nH]cc(c34)C[C@H]21 [dihydroergotamine]
Emax (Sm.5HTR [2]; HEK293, read-out: Sm.5HTR Emax): 103 ± 11%
agonist efficacy at Sm.5HTR, in words (Sm.5HTR [1]; FIG. 10A): partial agonism
EC50 (Sm.5HTR [1]; FIG. 10A, read-out: EC50, agonist activity at Sm.5HTR): 315 nM

C=C[C@@]1(C)CC(=O)[C@]2(O)[C@@]3(C)[C@@H](O)CCC(C)(C)[C@@H]3[C@H](O)[C@H](OC(C)=O)[C@@]2(C)O1 [forskolin]
decrease of egg laying (adult schistosomes): 62%

COc1ccc2cc1Oc1ccc(cc1)C[C@H]1c3cc(c(OC)cc3CCN1C)Oc1c(OC)c(OC)cc3c1[C@H](C2)N(C)CC3 [tetrandrine]
potency (IC50) at Sm.5HTR, lower right quadrant of FIG. 13 (Sm.5HTR [1]; inhibition of cAMP generation): sub-μM potency
potency (IC50) at Hs.5HT7R, lower right quadrant of FIG. 13 (Hs.5HT7R): supra-μM potency
IC50 [3]: ≤ 1000 nM

COc1cc2nc(N(C)CCCNC(=O)C3CCCO3)nc(N)c2cc1OC (centres unmarked) [alfuzosin]
selectivity Sm.5HTR versus Hs.5HT7R (IC50 (Hs.5HT7R)/IC50 (Sm.5HTR)), in words (Sm.5HTR [1]; antagonism of 5-HT evoked cAMP, FIGS. 7, 12, 13): clear selectivity for Sm.5HTR
inhibition of 5-HT evoked cAMP generation through Sm.5HTRL (Sm.5HTRL): inhibited 5-HT evoked cAMP generation through Sm.5HTRL

CC(C)[C@@]1(NC(=O)[C@@H]2C[C@@H]3c4cccc5[nH]cc(c45)C[C@H]3N(C)C2)O[C@@]2(O)[C@@H]3CCCN3C(=O)[C@H](Cc3ccccc3)N2C1=O [dihydroergocristine]
antagonist activity at Sm.5HTR, in words (Sm.5HTR [2]): is an antagonist
Emax (Sm.5HTR [2]; HEK293, agonist read, 45 minutes, read-out: Sm.5HTR Emax): 22 ± 2%
